Laboratory results as given in the OPERA property sets (Mansouri et al. 2018).

SMILES	logP
CC(=O)NNC(=O)Nc1ccc(F)cc1	0.45
CC(=O)NNC(=O)Nc1ccccc1	0.25
COc1ccc(NC(=O)NNC(C)=O)cc1	0.11
CC(=O)NNC(=O)Nc1cccc(C)c1	0.75
CC(=O)NNC(=O)Nc1ccc(C)cc1	0.67
CC(=O)NNC(=O)Nc1ccc(Oc2ccccc2)cc1	2.01
CC(=O)NNC(=O)Nc1ccc(O)cc1	-0.79
CC(=O)NNC(=O)Nc1ccc(C(C)(C)C)cc1	2.08
CC(=O)NNC(=O)Nc1ccc(C#N)cc1	0.38
CC(=O)NNC(=O)Nc1ccc(Br)cc1	1.38
CC(=O)NNC(=O)Nc1ccc(Cl)cc1	1.12
CC(=O)NNC(=O)Nc1cccc(Cl)c1	1.33
COc1cccc(NC(=O)NNC(C)=O)c1	0.33

Next, values leading:

logP	SMILES
1.71	CC(=O)NNC(=O)Nc1cccc(I)c1
1.48	CC(=O)NNC(=O)Nc1cccc(Br)c1
0.67	CC(=O)NNC(=O)Nc1cccc([N+](=O)[O-])c1
1.59	CC(=O)NNC(=O)Nc1cccc(C(F)(F)F)c1
0.51	CCOc1ccc(NC(=O)NNC(C)=O)cc1
1.65	CC(=O)NNC(=O)Nc1ccc(I)cc1
0.73	CC(=O)NNC(=O)Nc1cccc(F)c1
0.77	CC(=O)NNC(=O)Nc1ccc([N+](=O)[O-])cc1
0.11	CC(=O)NNC(=O)Nc1ccc(N(C)C)cc1
